Results published in article PMC3230703 (Journal of molecular biology, 2011).

Biological target: GBSSrtC1 (SAG2603 V/R sortase C1) (Streptococcus agalactiae, UniProt Q8E0S7)
Experiment: NMR
Assay type: binding
Conditions: irreversible cysteine protease inhibitor; in solution

## CC(C)C[C@H](NC(=O)[C@H]1O[C@@H]1C(=O)O)C(=O)NCCCCN=C(N)N [E64]
  NMR (results not shown): inhibitors MTSET and E64 in solution was confirmed by mass spectrometry and NMR, respectively
